Biological target: cAMP-specific 3',5'-cyclic phosphodiesterase 4D (Homo sapiens, UniProt Q08499)
Experiment: Binding Assay
Description: Human recombinant PDE4 (Gene bank accession no NM006203) was incubated for 1 hour with the test compound at concentrations up to 10 μM, with cAMP (1x10-5M), and with a low amount (0.021 MBq) of radioactively labelled cAMP. At the end of the incubation, the cleavage of the substrate was evaluated by the binding of the AMP product to SPA beads, which generate chemo luminescence when bound to the radioactive tracer. The AMP product inhibited the binding of the radioactive tracer to the beads, and the luminescent signal was competed.

Chain of cAMP-specific 3',5'-cyclic phosphodiesterase 4D (Q08499 whole entry): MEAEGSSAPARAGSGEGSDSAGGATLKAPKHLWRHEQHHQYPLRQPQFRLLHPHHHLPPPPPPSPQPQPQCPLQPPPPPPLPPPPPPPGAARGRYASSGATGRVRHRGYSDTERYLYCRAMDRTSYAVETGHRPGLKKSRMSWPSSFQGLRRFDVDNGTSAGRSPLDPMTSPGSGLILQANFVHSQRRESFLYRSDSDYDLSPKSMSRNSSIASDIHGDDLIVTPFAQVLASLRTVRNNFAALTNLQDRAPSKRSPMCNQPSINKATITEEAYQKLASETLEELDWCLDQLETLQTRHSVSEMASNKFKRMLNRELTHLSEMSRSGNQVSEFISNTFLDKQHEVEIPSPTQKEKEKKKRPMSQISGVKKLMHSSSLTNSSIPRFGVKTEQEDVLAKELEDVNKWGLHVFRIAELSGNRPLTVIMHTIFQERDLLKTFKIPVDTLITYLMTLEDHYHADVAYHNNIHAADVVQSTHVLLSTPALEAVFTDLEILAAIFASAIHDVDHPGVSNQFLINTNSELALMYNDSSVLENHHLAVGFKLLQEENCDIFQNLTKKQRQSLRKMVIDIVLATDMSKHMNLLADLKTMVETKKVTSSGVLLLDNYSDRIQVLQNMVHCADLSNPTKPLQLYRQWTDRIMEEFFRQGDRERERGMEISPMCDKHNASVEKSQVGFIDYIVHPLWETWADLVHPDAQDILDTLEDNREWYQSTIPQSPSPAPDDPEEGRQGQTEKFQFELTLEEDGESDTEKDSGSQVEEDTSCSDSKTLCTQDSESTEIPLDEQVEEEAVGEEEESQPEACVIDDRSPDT

IC50: 46 nM
SMILES: COc1ccc(C(=O)Cc2ccccc2Cl)n2nc(C3CC3)nc12 [US8829190, 127]

— BindingDB's records for patent US8829190 (Leo Pharma, 2014)
